Test results taken from patent publication US9981950B2, “Triazoles as NR2B receptor inhibitors” (Janssen Pharmaceuticals, Inc., priority 2014, dated 2018).
Values belong to the compound of their own block, whether it stands above or below them.

How the values were obtained:
[1] = molecular target: cloned human NR1/NR2B ion channels (Homo sapiens (Human), UniProt Q05586+Q13224); assay: HNR2BC: calcium influx assay on cloned human NR1/NR2B ion channels expressed in HEK cells; type: cell-based; conditions: HEK cells hNR1/NR2B, 100 μM glutamate + 100 μM glycine, 3 parameter plot
Chain of cloned human NR1/NR2B ion channels (Q13224 27-1484, other chains not shown): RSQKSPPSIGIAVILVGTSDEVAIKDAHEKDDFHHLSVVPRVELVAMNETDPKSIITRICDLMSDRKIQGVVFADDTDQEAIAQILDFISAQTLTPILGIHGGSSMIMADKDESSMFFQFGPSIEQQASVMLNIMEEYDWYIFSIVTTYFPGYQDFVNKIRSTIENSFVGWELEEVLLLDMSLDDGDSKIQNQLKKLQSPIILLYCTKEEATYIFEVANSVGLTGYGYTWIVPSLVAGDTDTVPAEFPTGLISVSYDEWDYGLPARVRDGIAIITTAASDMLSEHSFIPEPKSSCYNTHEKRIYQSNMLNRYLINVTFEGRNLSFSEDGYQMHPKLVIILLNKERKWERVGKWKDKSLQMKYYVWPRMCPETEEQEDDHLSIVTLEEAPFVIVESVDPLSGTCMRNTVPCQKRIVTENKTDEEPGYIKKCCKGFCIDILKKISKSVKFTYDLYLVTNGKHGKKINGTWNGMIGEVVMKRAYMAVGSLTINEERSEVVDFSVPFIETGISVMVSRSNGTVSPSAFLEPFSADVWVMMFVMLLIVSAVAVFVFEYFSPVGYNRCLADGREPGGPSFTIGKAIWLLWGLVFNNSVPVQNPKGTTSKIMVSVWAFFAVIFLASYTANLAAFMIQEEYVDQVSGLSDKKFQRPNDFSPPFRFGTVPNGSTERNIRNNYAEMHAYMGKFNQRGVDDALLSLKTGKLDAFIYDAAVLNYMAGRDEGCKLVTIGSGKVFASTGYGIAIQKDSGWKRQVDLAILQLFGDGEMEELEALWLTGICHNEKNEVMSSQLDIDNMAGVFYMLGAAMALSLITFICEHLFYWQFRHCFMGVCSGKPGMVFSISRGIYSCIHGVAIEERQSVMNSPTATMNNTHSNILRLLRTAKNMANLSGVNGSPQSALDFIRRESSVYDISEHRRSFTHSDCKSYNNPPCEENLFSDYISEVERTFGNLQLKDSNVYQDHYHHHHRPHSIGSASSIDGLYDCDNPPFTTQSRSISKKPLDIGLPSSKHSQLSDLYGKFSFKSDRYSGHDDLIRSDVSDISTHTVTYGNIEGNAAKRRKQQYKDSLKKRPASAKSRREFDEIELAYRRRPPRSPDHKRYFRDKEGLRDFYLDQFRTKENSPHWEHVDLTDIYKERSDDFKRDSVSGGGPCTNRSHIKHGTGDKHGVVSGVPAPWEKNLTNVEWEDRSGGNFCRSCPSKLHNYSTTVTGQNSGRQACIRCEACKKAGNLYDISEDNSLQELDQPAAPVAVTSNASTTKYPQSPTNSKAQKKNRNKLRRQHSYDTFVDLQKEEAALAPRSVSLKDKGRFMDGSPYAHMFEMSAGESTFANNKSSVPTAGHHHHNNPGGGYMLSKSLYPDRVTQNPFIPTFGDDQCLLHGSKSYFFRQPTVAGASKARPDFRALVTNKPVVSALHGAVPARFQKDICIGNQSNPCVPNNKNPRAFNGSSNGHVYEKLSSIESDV
Procedure: HNR2BC: Effects of Test Articles on Cloned Human NR1/NR2B Ion Channels Expressed in Mammalian Cells
The ability of test compounds to act as an antagonist of NR1/NR2B were evaluated with a calcium influx assay (Calcium 5 Assay Kit, Molecular Devices).
For the antagonist assessment, NR1/NR2B was activated with the positive control agonist (Mg^2+-free HBPS+100 μM glutamic acid+100 μM glycine). The effect of each test article to inhibit the signal was examined after agonist stimulation and compared to the positive control antagonist (MK-801).
A HEK cell line, stable transfected with hNR1/NR2B was used. This tetracycline inducible cell line is transfected with GRIN1 (GeneBank accession number NM 007327.2) and GRIN2B (GeneBank accession number NM_000834.3.). The cells were cultured in cell culture flasks with DMEM/F12 supplemented with 10% FCS, 1% PenStrep and a selection of additional antibiotics.
Forty-Eight (48) hours before the assay the cells were plated into 96-well black well, flat clear bottom microtiter plates at a density of 50000 cells/well. Twenty-Four (24) hours later the receptor expression was induced by the addition of 1 μg/ml tetracycline in the presence of 2 mM ketamine and 200 μM 7-CKA. After 24 h of receptor induction the plates were used for the assay.
The medium was removed and the cells were loaded with 200 μl loading buffer (Molecular Devices) in Mg2+-free HBPS containing 100 μM 7-CKA at 37° C. for one (1) hour.
The test compounds were then solubilized in 100% DMSO and diluted to yield eight (8) different concentrations in 100% DMSO. A 96 well drug plate was prepared by diluting with water and glycine/glutamate to a 5-fold of final test concentration. Fluorescence intensity of the cells in the plate was measured in a FlexStation using an excitation wavelength of 485 nm and an emission wavelength of 525 nm. Twenty (20) seconds after starting the recordings the compounds together with the agonists glycine (100 μM) and glutamate (100 μM) were added into the wells and the fluorescence measured for ninety (90) seconds in summary.
The IC50 values provided in the paragraph below were determined using a 3 parameter plot.

[2] = molecular target: hERG-receptor (Homo sapiens (Human), UniProt Q12809); assay: HERGBD: inhibition of specific 3H-Dofetilide binding to the hERG-receptor; conditions: HEK cell membranes with human ERG, Hill-plot 2-parameter-model
Chain of hERG-receptor (Q12809 whole entry): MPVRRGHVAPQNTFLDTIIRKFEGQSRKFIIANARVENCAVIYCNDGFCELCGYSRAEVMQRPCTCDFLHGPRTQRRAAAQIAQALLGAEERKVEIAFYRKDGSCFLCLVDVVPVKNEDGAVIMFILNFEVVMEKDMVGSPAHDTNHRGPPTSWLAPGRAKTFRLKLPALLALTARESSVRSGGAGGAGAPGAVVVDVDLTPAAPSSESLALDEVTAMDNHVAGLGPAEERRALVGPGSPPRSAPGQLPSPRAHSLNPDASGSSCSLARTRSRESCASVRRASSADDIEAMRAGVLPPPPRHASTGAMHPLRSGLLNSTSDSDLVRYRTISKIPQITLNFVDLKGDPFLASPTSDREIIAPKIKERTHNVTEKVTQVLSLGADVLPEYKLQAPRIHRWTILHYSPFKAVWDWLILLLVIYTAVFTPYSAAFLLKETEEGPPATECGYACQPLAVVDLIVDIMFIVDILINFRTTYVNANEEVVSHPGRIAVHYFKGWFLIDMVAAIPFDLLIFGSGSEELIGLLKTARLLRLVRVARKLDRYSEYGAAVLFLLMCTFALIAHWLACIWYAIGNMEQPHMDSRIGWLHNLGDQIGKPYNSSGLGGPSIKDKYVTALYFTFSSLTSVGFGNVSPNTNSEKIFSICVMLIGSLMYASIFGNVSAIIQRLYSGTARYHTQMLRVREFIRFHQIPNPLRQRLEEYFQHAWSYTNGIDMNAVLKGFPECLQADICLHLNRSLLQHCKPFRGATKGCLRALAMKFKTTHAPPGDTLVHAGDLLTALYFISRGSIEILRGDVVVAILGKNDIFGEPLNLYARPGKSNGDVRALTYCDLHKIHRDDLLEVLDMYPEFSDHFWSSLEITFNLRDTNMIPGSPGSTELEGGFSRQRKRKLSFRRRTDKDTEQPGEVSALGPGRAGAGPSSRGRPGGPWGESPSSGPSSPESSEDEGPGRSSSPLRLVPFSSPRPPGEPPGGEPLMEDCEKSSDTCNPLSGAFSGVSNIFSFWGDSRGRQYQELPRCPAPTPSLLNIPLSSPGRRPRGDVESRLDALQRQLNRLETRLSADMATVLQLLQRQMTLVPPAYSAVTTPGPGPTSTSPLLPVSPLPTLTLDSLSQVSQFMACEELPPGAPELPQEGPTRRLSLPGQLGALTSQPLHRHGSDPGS
In short: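 Membranes from HEK cells stably expressing human ERG incubated 90 min at RT with 1.5 nmol/l 3H-dofetilide in 20 mM HEPES/0.1 mM KCl pH 7.2, inhibitor in 1% DMSO. Nonspecific binding with […] dofetilide; bound ligand separated by filtration and scintillation counted.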

[3] = molecular target: rat NR1/NR2B receptor (Rattus norvegicus (Rat), UniProt P35439+Q00960); assay: RRNR2BB: inhibition of specific binding to the rat NR1/NR2B receptor; conditions: [3H]-Ifenprodil binding, rat brain membranes, Hill-plot 2-parameter-model
Chain of rat NR1/NR2B receptor (Q00960 27-1482, other chains not shown): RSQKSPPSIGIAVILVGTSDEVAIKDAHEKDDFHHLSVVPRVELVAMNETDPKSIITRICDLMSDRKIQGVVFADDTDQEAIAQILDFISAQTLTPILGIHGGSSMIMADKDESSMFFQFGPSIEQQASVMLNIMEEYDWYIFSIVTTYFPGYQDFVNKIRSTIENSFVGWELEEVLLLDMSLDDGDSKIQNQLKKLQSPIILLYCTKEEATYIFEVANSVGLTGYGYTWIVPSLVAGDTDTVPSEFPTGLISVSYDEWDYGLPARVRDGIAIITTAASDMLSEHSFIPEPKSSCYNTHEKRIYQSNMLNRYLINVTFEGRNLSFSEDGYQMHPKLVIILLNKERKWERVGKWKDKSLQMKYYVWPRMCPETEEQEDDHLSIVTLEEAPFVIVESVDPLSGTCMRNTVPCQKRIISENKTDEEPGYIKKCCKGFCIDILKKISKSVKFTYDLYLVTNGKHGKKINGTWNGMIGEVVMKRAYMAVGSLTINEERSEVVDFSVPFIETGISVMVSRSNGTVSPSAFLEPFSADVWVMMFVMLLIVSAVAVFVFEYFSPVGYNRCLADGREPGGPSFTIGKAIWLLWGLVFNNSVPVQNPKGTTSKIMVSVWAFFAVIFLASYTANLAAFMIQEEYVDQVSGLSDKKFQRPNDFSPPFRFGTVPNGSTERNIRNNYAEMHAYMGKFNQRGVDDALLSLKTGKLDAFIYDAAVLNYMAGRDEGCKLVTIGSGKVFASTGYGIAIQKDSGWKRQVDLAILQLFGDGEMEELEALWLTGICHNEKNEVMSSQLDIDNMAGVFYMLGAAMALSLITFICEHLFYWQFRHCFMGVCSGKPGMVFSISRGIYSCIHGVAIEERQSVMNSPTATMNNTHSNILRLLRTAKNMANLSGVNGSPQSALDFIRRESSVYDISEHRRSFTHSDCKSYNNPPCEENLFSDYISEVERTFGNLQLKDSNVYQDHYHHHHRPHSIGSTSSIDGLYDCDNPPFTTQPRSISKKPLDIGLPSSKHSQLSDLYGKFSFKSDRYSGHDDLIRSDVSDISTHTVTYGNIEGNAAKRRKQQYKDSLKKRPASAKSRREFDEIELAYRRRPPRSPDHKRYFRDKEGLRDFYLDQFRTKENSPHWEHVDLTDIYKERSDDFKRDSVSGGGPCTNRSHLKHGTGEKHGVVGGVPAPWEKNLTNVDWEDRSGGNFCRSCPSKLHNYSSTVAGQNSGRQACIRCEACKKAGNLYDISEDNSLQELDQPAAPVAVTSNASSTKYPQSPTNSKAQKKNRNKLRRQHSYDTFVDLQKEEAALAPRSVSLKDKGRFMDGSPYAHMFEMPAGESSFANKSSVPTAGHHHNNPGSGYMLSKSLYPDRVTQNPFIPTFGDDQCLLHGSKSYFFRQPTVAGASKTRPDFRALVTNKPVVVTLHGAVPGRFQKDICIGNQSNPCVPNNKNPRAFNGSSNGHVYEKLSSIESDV
In short: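 Washed membranes from male Wistar rat forebrain (whole brain minus cerebellum) in 5 mM Tris/1 mM EDTA pH 7.4 used in ifenprodil-site binding, 60 min at 4° C. Nonspecific binding defined with […] CP101.606; bound separated by filtration on PEI-soaked filters. IC50 from Hill plot, 2-parameter model.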

SMILES: CC(C)c1nccn1Cc1cn(-c2ccc(Cl)c(OC(F)F)c2)nn1 [Example 97, 1-(4-Chloro-3-difluoromethoxy-phenyl)-4-(2-isopropyl-imidazol-1-ylmethyl)-1H-[1,2,3]triazole]
IC50 [1]: 0.58 µM

SMILES: Fc1ccc(-n2cc(Cc3cc[nH]n3)nn2)cc1C(F)F [Example 115, 1-(3-difluoromethyl-4-fluoro-phenyl)-4-(1H-pyrazol-3-ylmethyl)-1H-[1,2,3]triazole]
IC50 [1]: 10.5 µM

SMILES: Cc1ccc(C(=O)c2nccn2Cc2cn(-c3ccc(Cl)cc3)nn2)cc1 [Example 116, [1-[[1-(4-chlorophenyl)triazol-4-yl]methyl]imidazol-2-yl]-(p-tolyl)methanone]
IC50 [1]: 22.4 µM
IC50 [3]: > 5 µM

More lines, in order of falling IC50 [1], values ahead:

IC50 [1]: 3.42 µM
SMILES: Nc1nccn1Cc1cn(-c2cc(F)cc(C(F)F)c2)nn1 [Example 111, 4-(2-amino-imidazol-1-ylmethyl)-1-(3-fluoro-5-difluoromethyl-phenyl)-1H-[1,2,3]triazole]
IC50 [2]: 3.29 µM

IC50 [1]: 3.17 µM
SMILES: CCc1nccn1Cc1cn(-c2ccc(F)c(Cl)c2)nn1 [Example 42, 1-(3-Chloro-4-fluoro-phenyl)-4-(2-ethyl-imidazol-1-ylmethyl)-1H-[1,2,3]triazole]
